Experimental data taken from ChEMBL document CHEMBL4011594, “Discovery and optimization of 2-pyridinone aminal integrase strand transfer inhibitors for the treatment of HIV” (Bioorg Med Chem Lett, 2017).
Converted amounts (≈) assume the structure as drawn.

Tests used:
[1] = test system: Human immunodeficiency virus 1; experiment: Inhibition of wild-type HIV-1 integrase strand transfer activity assessed as reduction in viral replication in presence of 10% normal human serum
[2] = Aqueous solubility of the compound at pH 7; type: physicochemical
[3] = test system: Human immunodeficiency virus 1; experiment: Inhibition of HIV-1 integrase strand transfer activity assessed as reduction in viral replication in presence of 50% normal human serum
[4] = Aqueous solubility of the compound at pH 2; type: physicochemical
[5] = test system: Human immunodeficiency virus type 1 integrase (Human immunodeficiency virus 1), Q7ZJM1 [Q148K]; experiment: Inhibition of HIV-1 integrase Q148K mutant strand transfer activity assessed as reduction in viral replication
[6] = test system: Human immunodeficiency virus type 1 integrase (Human immunodeficiency virus 1), Q7ZJM1 [G140S,Q148H]; experiment: Inhibition of HIV-1 integrase G140S/Q148H double mutant strand transfer activity assessed as reduction in viral replication
[7] = Plasma protein binding in Beagle dog; type: ADME, cell-free, Canis lupus familiaris; settings: read-out: PPB (converted)
[8] = Clearance in Beagle dog at 0.5 mg/kg, iv or 1 mg/kg, po; type: ADME, organism-based, Canis lupus familiaris; settings: in vivo
[9] = Half life in Beagle dog at 0.5 mg/kg, iv or 1 mg/kg, po; type: ADME, organism-based, Canis lupus familiaris; settings: in vivo
[10] = test system: Human immunodeficiency virus type 1 integrase (Human immunodeficiency virus 1), Q7ZJM1 [N155H]; experiment: Inhibition of HIV-1 integrase N155H mutant strand transfer activity assessed as reduction viral replication
[11] = test system: Human immunodeficiency virus type 1 integrase (Human immunodeficiency virus 1), Q7ZJM1 [Q148R]; experiment: Inhibition of HIV-1 integrase Q148R mutant strand transfer activity assessed as reduction in viral replication
[12] = Oral bioavailability in Beagle dog at 1 mg/kg; type: ADME, organism-based, Canis lupus familiaris; settings: in vivo
[13] = test system: Human immunodeficiency virus type 1 integrase (Human immunodeficiency virus 1), Q7ZJM1 [Y143R]; experiment: Inhibition of HIV-1 integrase Y143R mutant strand transfer activity assessed as reduction in viral replication
[14] = test system: Human immunodeficiency virus type 1 integrase (Human immunodeficiency virus 1), Q7ZJM1 [E92Q]; experiment: Inhibition of HIV-1 integrase E92Q mutant strand transfer activity assessed as reduction in viral replication
[15] = Volume of distribution in Beagle dog at 0.5 mg/kg, iv or 1 mg/kg, po; type: ADME, organism-based, Canis lupus familiaris; settings: in vivo

IP [1] [nM]	solubility [2] [µM]	IP [3] [nM]	solubility [4] [µM]	Compound	other results
8	56 (≈ 32.7 µg/mL)	42	136 (≈ 79.4 µg/mL)	CN1CC(=O)N(CCN2C(=O)c3c4c(c(O)c(=O)n3C23CCC2CC23)C(=O)N(Cc2ccc(F)c(Cl)c2)CC4)C1=O (configuration not stated)	–
100	10 (≈ 4.32 µg/mL)	1600	< 5	O=C1NC2(CCCC2)n2c1c1c(c(O)c2=O)C(=O)N(Cc2ccc(F)c(Cl)c2)CC1	–
19	17 (≈ 9.84 µg/mL)	150	33 (≈ 19.1 µg/mL)	CN(CCN1C(=O)c2c3c(c(O)c(=O)n2C12CCC1CC12)C(=O)N(Cc1ccc(F)c(Cl)c1)CC3)S(C)(=O)=O (configuration not stated)	–
15	54 (≈ 27.9 µg/mL)	120	69 (≈ 35.6 µg/mL)	CCC(O)CN1C(=O)c2c3c(c(O)c(=O)n2C12CCC1CC12)C(=O)N(Cc1ccc(F)c(Cl)c1)CC3 (configuration not stated)	–
25	26 (≈ 13.4 µg/mL)	180	46 (≈ 23.7 µg/mL)	CO[C@H](C)CN1C(=O)c2c3c(c(O)c(=O)n2C12CCC1CC12)C(=O)N(Cc1ccc(F)c(Cl)c1)CC3 (some centres not stated)	–
17	< 4	170	11 (≈ 6.5 µg/mL)	O=C1c2c(c3n(c(=O)c2O)C2(CCC4CC42)N(CCN2CCCS2(=O)=O)C3=O)CCN1Cc1ccc(F)c(Cl)c1 (configuration not stated)	–
45	< 6	410	< 6	COC(C)(C)CCN1C(=O)c2c3c(c(O)c(=O)n2C12CCC1CC12)C(=O)N(Cc1ccc(F)c(Cl)c1)CC3 (configuration not stated)	–
110	< 5	700	< 5	CC1CCC2(C1)NC(=O)c1c3c(c(O)c(=O)n12)C(=O)N(Cc1ccc(F)c(Cl)c1)CC3 (racemic)	–
45	< 2	230	< 2	Cc1ccc2c(c1)C1(CC2)NC(=O)c2c3c(c(O)c(=O)n21)C(=O)N(Cc1ccc(F)c(Cl)c1)CC3 (racemic)	–
1100	< 5	4800	< 5	CN1C(=O)c2c3c(c(O)c(=O)n2C12CCCCCC2)C(=O)N(Cc1ccc(F)c(Cl)c1)CC3	–
16	123 (≈ 65.4 µg/mL)	130	157 (≈ 83.5 µg/mL)	COCC(O)CN1C(=O)c2c3c(c(O)c(=O)n2C12CCC1CC12)C(=O)N(Cc1ccc(F)c(Cl)c1)CC3 (configuration not stated)	–
28	23 (≈ 11.9 µg/mL)	210	12 (≈ 6.19 µg/mL)	CO[C@@H](C)CN1C(=O)c2c3c(c(O)c(=O)n2C12CCC1CC12)C(=O)N(Cc1ccc(F)c(Cl)c1)CC3 (some centres not stated)	–
210	< 5	900	< 5	CN1C(=O)c2c3c(c(O)c(=O)n2C12CCC2)C(=O)N(Cc1ccc(F)c(Cl)c1)CC3	–
493	–	1940	–	COc1nccc2c1C1(CC2)NC(=O)c2c3c(c(O)c(=O)n21)C(=O)N(Cc1ccc(F)c(Cl)c1)CC3 (racemic)	–
37	< 2	140	< 2	Cc1cccc2c1C1(CC2)NC(=O)c2c3c(c(O)c(=O)n21)C(=O)N(Cc1ccc(F)c(Cl)c1)CC3 (racemic)	–
31	14 (≈ 7.59 µg/mL)	240	44 (≈ 23.8 µg/mL)	O=C1c2c(c3n(c(=O)c2O)C2(CCC4CC42)N(CC2CCOCC2)C3=O)CCN1Cc1ccc(F)c(Cl)c1 (racemic)	–

IP [1] [nM]	solubility [2] [µM]	IP [3] [nM]	solubility [4] [µM]	Compound	other results
4	5 (≈ 2.55 µg/mL)	22	< 2	COc1cccc2c1[C@]1(CC2)NC(=O)c2c3c(c(O)c(=O)n21)C(=O)N(Cc1ccc(F)c(Cl)c1)CC3	–
620	< 3	1800	< 3	O=C1NC2(Cc3ccccc3C2)n2c1c1c(c(O)c2=O)C(=O)N(Cc2ccc(F)c(Cl)c2)CC1	–
33	59 (≈ 29.6 µg/mL)	197	54 (≈ 27.1 µg/mL)	COCCN1C(=O)c2c3c(c(O)c(=O)n2C12CCC1CC12)C(=O)N(Cc1ccc(F)c(Cl)c1)CC3 (configuration not stated)	–
8340	31 (≈ 13.4 µg/mL)	> 10000	40 (≈ 17.3 µg/mL)	O=C1NC(C2CCC2)n2c1c1c(c(O)c2=O)C(=O)N(Cc2ccc(F)c(Cl)c2)CC1 (racemic)	–
59	< 3	240	< 3	Cc1ccc2c(c1)CCC21NC(=O)c2c3c(c(O)c(=O)n21)C(=O)N(Cc1ccc(F)c(Cl)c1)CC3 (racemic)	–
40	–	130	–	O=C1CC[C@@H](CN2C(=O)c3c4c(c(O)c(=O)n3C23CCC2CC23)C(=O)N(Cc2ccc(F)c(Cl)c2)CC4)N1 (some centres not stated)	–
16	32 (≈ 14.2 µg/mL)	88	49 (≈ 21.7 µg/mL)	O=C1N[C@@]2(CC[C@@H]3C[C@@H]32)n2c1c1c(c(O)c2=O)C(=O)N(Cc2ccc(F)c(Cl)c2)CC1	–
140	< 2	540	< 2	Cc1cccc2c1CCC21NC(=O)c2c3c(c(O)c(=O)n21)C(=O)N(Cc1ccc(F)c(Cl)c1)CC3 (racemic)	–
> 10000	< 5	> 1000	116 (≈ 51.7 µg/mL)	O=C1NC(C2CCCC2)n2c1c1c(c(O)c2=O)C(=O)N(Cc2ccc(F)c(Cl)c2)CC1 (racemic)	–
13	12 (≈ 7.27 µg/mL)	65	18 (≈ 10.9 µg/mL)	CN1CCN(CCN2C(=O)c3c4c(c(O)c(=O)n3C23CCC2CC23)C(=O)N(Cc2ccc(F)c(Cl)c2)CC4)S1(=O)=O (configuration not stated)	–
13	63 (≈ 32.2 µg/mL)	74	190 (≈ 97.1 µg/mL)	COc1ccnc2c1C1(CC2)NC(=O)c2c3c(c(O)c(=O)n21)C(=O)N(Cc1ccc(F)c(Cl)c1)CC3 (racemic)	–
7	63 (≈ 31.6 µg/mL)	33	190 (≈ 95.4 µg/mL)	C[C@@H](O)CN1C(=O)c2c3c(c(O)c(=O)n2[C@@]12CC[C@H]1C[C@H]12)C(=O)N(Cc1ccc(F)c(Cl)c1)CC3	–
80	< 2	890	< 2	O=C1c2c(c3n(c(=O)c2O)C2(CCC4CC42)N(CCN2C(=O)c4ccccc4C2=O)C3=O)CCN1Cc1ccc(F)c(Cl)c1 (configuration not stated)	–
48	107 (≈ 52.2 µg/mL)	274	138 (≈ 67.3 µg/mL)	O=C1c2c(c3n(c(=O)c2O)C2(CCC4CC42)N(CCO)C3=O)CCN1Cc1ccc(F)c(Cl)c1 (configuration not stated)	–
18	67 (≈ 38.3 µg/mL)	120	151 (≈ 86.2 µg/mL)	O=C(CN1C(=O)c2c3c(c(O)c(=O)n2C12CCC1CC12)C(=O)N(Cc1ccc(F)c(Cl)c1)CC3)N1CCOCC1 (configuration not stated)	–
27	< 2	190	< 2	O=C1NC2(CCc3ccccc32)n2c1c1c(c(O)c2=O)C(=O)N(Cc2ccc(F)c(Cl)c2)CC1 (racemic)	–

Compound	IP [1] [nM]	solubility [2] [µM]	IP [3] [nM]	solubility [4] [µM]	other results
O=C1c2c(c3n(c(=O)c2O)C2(CCC4CC42)N(CCN2C(=O)CCC2=O)C3=O)CCN1Cc1ccc(F)c(Cl)c1 (configuration not stated)	7	48 (≈ 27.3 µg/mL)	46	89 (≈ 50.6 µg/mL)	IP [5]: 7 nM; IP [6]: 23 nM; fraction unbound [7]: 0.058; clearance [8]: 7.3 mL/min/kg; half-life [9]: 6.6 h; IP [10]: 8 nM; IP [11]: 7 nM; bioavailability [12]: 4.5 to 5%; IP [13]: 11 nM; IP [14]: 7 nM; Vd [15]: 2.1 L/kg
C[C@H](O)CN1C(=O)c2c3c(c(O)c(=O)n2[C@@]12CC[C@H]1C[C@H]12)C(=O)N(Cc1ccc(F)c(Cl)c1)CC3	8	98 (≈ 49.2 µg/mL)	44	125 (≈ 62.7 µg/mL)	IP [5]: 10 nM; IP [6]: 27 nM; fraction unbound [7]: 0.025; clearance [8]: 2.9 mL/min/kg; half-life [9]: 6 h; IP [10]: 11 nM; IP [11]: 10 nM; bioavailability [12]: 42%; IP [13]: 11 nM; IP [14]: 10 nM; Vd [15]: 0.5 L/kg
O=C1c2c(c3n(c(=O)c2O)[C@@H](C2CC2)N(C2CC2)C3=O)CCN1Cc1ccc(F)c(Cl)c1	95	34 (≈ 15.6 µg/mL)	1730	40 (≈ 18.3 µg/mL)	IP [5]: 820 nM; IP [6]: 1540 nM; fraction unbound [7]: 0.024; clearance [8]: 1.4 mL/min/kg; half-life [9]: 7.5 h; IP [10]: 271 nM; IP [11]: 1010 nM; bioavailability [12]: 44%; IP [13]: 142 nM; IP [14]: 123 nM; Vd [15]: 0.7 L/kg
N#Cc1cccc2c1[C@@]1(CC2)NC(=O)c2c3c(c(O)c(=O)n21)C(=O)N(Cc1ccc(F)c(Cl)c1)CC3	1300	17 (≈ 8.58 µg/mL)	4110	10 (≈ 5.05 µg/mL)	–
O=C1N[C@]2(CC[C@H]3C[C@H]32)n2c1c1c(c(O)c2=O)C(=O)N(Cc2ccc(F)c(Cl)c2)CC1	30	31 (≈ 13.8 µg/mL)	206	30 to 50 (≈ 13.3 to 22.2 µg/mL)	IP [5]: 450 nM; IP [6]: 491 nM; clearance [8]: 0.12 mL/min/kg; half-life [9]: 13 h; IP [10]: 84 nM; IP [11]: 107 nM; bioavailability [12]: 15%; IP [13]: 28 nM; IP [14]: 210 nM; Vd [15]: 0.1 L/kg
